The supplement of paper PMC10307832

What was measured:
Experiment in all cases: relative viability (nuclei count vs DMSO), 5 days (fraction); higher = more cells survive
[1] = compound: O=C(O)c1ccc2c(c1)nc(Nc1cccc(Cl)c1)c1ccncc12 [Silmitasertib] + C[C@]1(O)C[C@@H](c2nc(-c3ccc4ccc(-c5ccccc5)nc4c3)c3c(N)nccn32)C1 [Linsitinib] (partner 1 µM)
In short: (§1)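 One day after seeding in 1536-well plates, lung cancer cell lines were dosed by pin tool. Dosing was either single-drug or a fixed anchor-drug dose plus five library-drug doses (not always all listed) in √10 steps. After 5 days, nuclei were stained in one fix-and-stain step and counted on 4× images, and relative viability is the nuclei count of treated wells over that of vehicle wells, given as the median of duplicate plates.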

[2] = compound: O=C(O)c1ccc2c(c1)nc(Nc1cccc(Cl)c1)c1ccncc12 [Silmitasertib] + O=C(CCCCCCC(=O)Nc1ccccc1)NO [Vorinostat] (partner 1 µM)
In short: as §1

[3] = compound: O=C(O)c1ccc2c(c1)nc(Nc1cccc(Cl)c1)c1ccncc12 [Silmitasertib] + CCNC(=O)c1noc(-c2cc(C(C)C)c(O)cc2O)c1-c1ccc(CN2CCOCC2)cc1 [Luminespib] (partner 0.01 µM)
In short: as §1

[4] = compound: O=C(O)c1ccc2c(c1)nc(Nc1cccc(Cl)c1)c1ccncc12 [Silmitasertib] + C[C@@H](Oc1cc(-c2cnn(C3CCNCC3)c2)cnc1N)c1c(Cl)ccc(F)c1Cl [Crizotinib] (partner 1 µM)
In short: as §1

Silmitasertib = compound: O=C(O)c1ccc2c(c1)nc(Nc1cccc(Cl)c1)c1ccncc12 [Silmitasertib]
In short: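 Lung cancer cell lines in 1536-well plates were kept overnight at 37 °C, then pinned with five library-drug doses (not always all listed) spaced by √10 on vehicle-anchored plates. After 5 days without medium change, cells were fixed, permeabilised and Hoechst-stained in one step, imaged at 4×, and nuclei were counted with MetaXpress. Viability is treated-well nuclei divided by vehicle-well nuclei, taken as the median over plates. Plates passed only with control CV below 25% and at least one doubling.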

Cell Line | relative viability ([1]; first compound 0.04 µM) | relative viability ([1]; first compound 0.4 µM) | relative viability ([1]; first compound 1.265 µM) | relative viability ([1]; first compound 4 µM) | relative viability ([2]; first compound 0.04 µM) | relative viability ([2]; first compound 0.4 µM) | relative viability ([2]; first compound 1.265 µM) | relative viability ([2]; first compound 4 µM) | relative viability ([3]; first compound 0.04 µM) | relative viability ([3]; first compound 0.4 µM) | relative viability ([3]; first compound 1.265 µM) | relative viability ([3]; first compound 4 µM) | relative viability ([4]; first compound 0.04 µM) | relative viability ([4]; first compound 0.4 µM) | relative viability ([4]; first compound 1.265 µM) | relative viability ([4]; first compound 4 µM) | relative viability (Silmitasertib; 0.04 µM) | relative viability (Silmitasertib; 0.4 µM) | relative viability (Silmitasertib; 1.265 µM) | relative viability (Silmitasertib; 4 µM)
NCI-H1755 | 1.02 | 1.04 | 1.06 | 1.13 | 0.756 | 0.633 | 0.526 | 0.72 | 0.378 | 0.627 | 0.364 | 0.525 | 0.89 | 0.837 | 0.929 | 0.924 | 1.03 | 0.953 | 1.05 | 1.16
NCI-H1915 | 1.13 |  | 1.18 | 0.956 | 0.54 |  | 0.519 | 0.413 | 0.83 |  | 0.77 | 0.669 | 0.888 |  | 0.931 | 0.718 | 1.01 |  | 1.03 | 0.554
NCI-H1944 | 1.17 | 1.15 | 0.968 | 1.25 | 0.595 | 0.459 | 0.647 | 0.531 | 0.549 | 0.653 | 0.765 | 0.793 | 1.1 | 0.856 | 0.965 | 1.03 | 1.01 | 0.748 | 0.994 | 0.936
NCI-H1975 | 1.07 | 0.842 | 0.878 | 0.686 | 0.766 |  | 0.687 | 0.69 | 0.199 |  | 0.184 | 0.136 | 0.954 | 0.795 | 0.929 | 0.816 | 1.18 |  | 0.904 | 0.917
NCI-H1993 | 0.597 | 0.747 | 0.695 | 0.758 | 0.911 | 0.553 | 0.659 | 0.514 | 0.874 | 0.697 | 0.621 | 0.617 | 0.956 | 0.899 | 0.803 | 0.644 | 1.08 | 0.742 | 0.837 | 0.622
NCI-H2009 | 1.27 | 1.2 | 1.16 | 0.77 | 0.787 | 0.681 | 0.795 | 0.751 | 1.06 | 1.1 | 0.971 | 0.604 | 1.09 | 1.04 | 1.1 | 0.97 | 1.05 | 0.878 | 0.85 | 0.608
NCI-H2023 | 0.741 | 0.62 | 0.532 | 0.472 | 0.839 | 0.268 | 0.63 | 0.374 | 0.746 | 0.535 | 0.683 | 0.684 | 0.663 | 0.585 | 0.513 | 0.542 | 1.03 | 0.791 | 0.87 | 0.651
NCI-H2085 | 0.95 | 0.8 | 0.828 | 0.806 | 0.837 | 0.638 | 0.725 | 0.548 | 0.409 |  | 0.422 | 0.386 | 0.871 | 0.777 | 0.806 | 0.77 | 1.03 | 0.779 | 0.941 | 0.902
NCI-H2087 | 0.991 | 0.75 | 0.608 | 0.408 | 0.669 | 0.506 | 0.672 | 0.589 | 0.148 |  | 0.179 | 0.142 | 0.88 | 0.793 | 0.853 | 0.428 | 1.04 | 0.596 | 0.875 | 0.466
NCI-H2126 | 0.722 | 0.737 | 0.626 | 0.585 | 0.863 | 0.607 | 0.693 | 0.406 | 0.915 | 0.901 | 0.777 | 0.853 | 1.02 | 0.996 | 0.99 | 1.12 | 0.996 | 0.824 | 0.939 | 0.81
NCI-H2228 | 0.787 | 0.548 | 0.786 | 0.628 | 0.848 | 0.513 | 0.779 | 0.875 | 0.178 |  | 0.145 | 0.135 | 0.497 | 0.495 | 0.449 | 0.374 | 0.949 | 0.715 | 1.12 | 1.06
NCI-H2347 | 1.01 | 0.952 | 0.967 | 0.848 | 0.565 | 0.502 | 0.565 | 0.479 | 0.28 |  | 0.48 | 0.236 | 0.792 | 0.683 | 0.725 | 0.567 | 1.1 | 0.754 | 0.98 | 0.687
NCI-H2405 | 1.16 | 0.783 | 0.856 | 0.887 | 1.1 | 0.927 | 0.839 | 0.519 | 0.75 | 0.507 | 0.757 | 0.71 | 0.822 | 0.692 | 0.745 | 0.803 | 1.24 | 0.831 | 0.883 | 0.81
NCI-H3122 | 0.957 | 0.953 | 0.948 | 1.15 | 1.04 | 0.807 | 0.679 | 1.19 | 0.104 | 0.0852 | 0.0992 | 0.123 | 0.305 | 0.262 | 0.256 | 0.262 | 0.995 | 0.889 | 1.02 | 0.983
PC-3 [JPC-3] | 0.98 | 0.964 | 1.03 | 0.986 | 0.815 | 0.706 | 0.833 | 0.436 | 0.716 | 0.571 | 0.746 | 0.654 | 0.968 | 0.868 | 1.03 | 0.999 | 1.04 | 0.812 | 1.1 | 0.953
PC-14 | 0.966 | 0.999 | 1.01 | 0.993 | 0.893 |  | 0.734 | 0.482 | 0.188 |  | 0.14 | 0.179 | 0.932 | 0.897 | 0.888 | 0.847 | 1.2 | 0.703 | 1.02 | 0.735
